Test results taken from ChEMBL document CHEMBL1201862, “PubChem BioAssay data set” (2004).
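Results reflect a 48-hour exposure of cells in 96-well plates to compound at five concentrations. GI50: concentration for 50% inhibition of growth.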 Activity calls are given as the source filed them. Cut-off read from the data, not from the text of the source: active = GI50 up to about 1.1 µM and inactive = higher.

Experiments:
Test in all cases: growth of human tumour cells (NCI), 48 h
[1] = tested on: ACHN
[2] = tested on: T47D
[3] = tested on: HCC 2998
[4] = tested on: CCRF-CEM
[5] = tested on: NCI-H460
[6] = tested on: EKVX
[7] = tested on: MDA-N
[8] = tested on: BT-549
[9] = tested on: Malme-3M
[10] = tested on: KM12
[11] = tested on: HCT-116
[12] = tested on: SK-MEL-28
[13] = tested on: PC-3
[14] = tested on: OVCAR-5
[15] = tested on: HT-29
[16] = tested on: CAKI-1
[17] = tested on: SF-539
[18] = tested on: 786-0
[19] = tested on: MDA-MB-231

Row | SMILES | GI50 [1] | GI50 [2] | GI50 [3] | GI50 [4] | GI50 [5] | GI50 [6] | GI50 [7] | GI50 [8] | GI50 [9] | GI50 [10] | GI50 [11] | GI50 [12] | GI50 [13] | GI50 [14] | GI50 [15] | GI50 [16] | GI50 [17] | GI50 [18] | GI50 [19]
1 | Clc1ccc2oc(CCC3CCCCC3)nc2c1 | 40.6 µM (inactive) | 20.5 µM (inactive) | 22.9 µM (inactive) | 18.5 µM (inactive) | 24.9 µM (inactive) | 26.7 µM (inactive) | 33.3 µM (inactive) | 26.8 µM (inactive) | 39.5 µM (inactive) | 26.4 µM (inactive) | 31.4 µM (inactive) | 33.3 µM (inactive) | 33 µM (inactive) | 33.3 µM (inactive) | 23.5 µM (inactive) | 24.7 µM (inactive) | 32.1 µM (inactive) | 28.2 µM (inactive) | 28.3 µM (inactive)
2 | O=c1[nH]cnc2c1sc1nc3ccccc3n12 | > 100 µM (inactive) | > 100 µM (inactive) | 73.3 µM (inactive) | 55.6 µM (inactive) |  | > 100 µM (inactive) | > 100 µM (inactive) | > 100 µM (inactive) | > 100 µM (inactive) | 5.96 µM (inactive) | 70.3 µM (inactive) | > 100 µM (inactive) | 88.5 µM (inactive) | > 100 µM (inactive) | > 100 µM (inactive) | > 100 µM (inactive) | 61.9 µM (inactive) | 67.5 µM (inactive) | > 100 µM (inactive)
3 | CC(C)(C)c1cc(C(=O)/C=C/c2c(Cl)cccc2Cl)cc(C(C)(C)C)c1O | 14.7 µM (inactive) | 4.33 µM (inactive) | 14.1 µM (inactive) | 4.04 µM (inactive) | 7.46 µM (inactive) | 21.9 µM (inactive) | 16.7 µM (inactive) | 17.4 µM (inactive) | 18.6 µM (inactive) | 13.1 µM (inactive) | 8.83 µM (inactive) | 19.4 µM (inactive) | 11.4 µM (inactive) | 19.2 µM (inactive) | 10.2 µM (inactive) | 22.2 µM (inactive) | 16.1 µM (inactive) | 13.1 µM (inactive) | 10.9 µM (inactive)
4 | Cn1c2c(c3ccccc31)CCN=C2C1CCCOC1=O (centres undefined) | > 100 µM (inactive) | > 100 µM (inactive) | > 100 µM (inactive) |  | > 100 µM (inactive) | 88.3 µM (inactive) | > 100 µM (inactive) | 47 µM (inactive) | > 100 µM (inactive) | > 100 µM (inactive) | > 100 µM (inactive) | > 100 µM (inactive) | > 100 µM (inactive) | > 100 µM (inactive) | > 100 µM (inactive) | > 100 µM (inactive) | > 100 µM (inactive) | > 100 µM (inactive) | > 100 µM (inactive)
5 | COc1ccc2[nH]c3c(C)c4cnccc4c(C)c3c2c1 | 2.01 µM (inactive) | > 10 µM (inactive) | 1.67 µM (inactive) | 2.07 µM (inactive) | 1.78 µM (inactive) | 1.87 µM (inactive) | 1.85 µM (inactive) | 7.48 µM (inactive) | 1.45 µM (inactive) | 1.31 µM (inactive) | 1.25 µM (inactive) | 1.94 µM (inactive) | 2.99 µM (inactive) | 3.11 µM (inactive) | 1.11 µM (active) | 6.27 µM (inactive) | 1.88 µM (inactive) | 0.424 µM (active) | 2.8 µM (inactive)
6 | CC(NC(=O)C(NC(=O)C(NC(=O)C(F)(F)F)C(C)C)C(C)C)C(=O)Oc1c(Cl)c(Cl)c(Cl)c(Cl)c1Cl (centres undefined) | > 100 µM (inactive) | 83.4 µM (inactive) | > 100 µM (inactive) | > 100 µM (inactive) | > 100 µM (inactive) | > 100 µM (inactive) | > 100 µM (inactive) | > 100 µM (inactive) | > 100 µM (inactive) | > 100 µM (inactive) | > 100 µM (inactive) | > 100 µM (inactive) | > 100 µM (inactive) | > 100 µM (inactive) | > 100 µM (inactive) | > 100 µM (inactive) | > 100 µM (inactive) |  | > 100 µM (inactive)
7 | CC(=O)O[C@H]1CC[C@@]2(C)C(=CC[C@@H]3[C@@H]2CC[C@]2(C)Nc4c(cnn4S(C)(=O)=O)C[C@@H]32)C1 |  | 36.1 µM (inactive) | > 100 µM (inactive) | 37.2 µM (inactive) | 44.4 µM (inactive) |  | 60.1 µM (inactive) | 23.3 µM (inactive) | > 100 µM (inactive) | 52.8 µM (inactive) |  | > 100 µM (inactive) | 39.1 µM (inactive) | 38.2 µM (inactive) | 21.9 µM (inactive) | 49.9 µM (inactive) |  |  | > 100 µM (inactive)
8 | C[C@@H]1Nc2cc(NC(=O)OCCF)nc(N)c2N=C1c1ccccc1 | 24.8 µM (inactive) | 61.9 µM (inactive) | < 0.01 µM (active) | < 0.0001 µM (active) | < 0.0001 µM (active) | < 0.0001 µM (active) | < 0.0001 µM (active) | 84.1 µM (inactive) | 0.111 µM (active) | < 0.0001 µM (active) | < 0.0001 µM (active) | 88.7 µM (inactive) | < 0.0001 µM (active) | < 0.0001 µM (active) | < 0.0001 µM (active) | > 100 µM (inactive) | < 0.0001 µM (active) | < 0.0001 µM (active) | < 0.0001 µM (active)
9 | S=C(N/N=C/c1ccccn1)N1CC2CCC(CC2)C1 | < 0.01 µM (active) | < 0.01 µM (active) | 0.0895 µM (active) | < 0.01 µM (active) | < 0.01 µM (active) | < 0.0395 µM (active) | 0.0188 µM (active) | < 0.01 µM (active) | < 0.047 µM (active) | < 0.01 µM (active) | < 0.01 µM (active) | 0.0559 µM (active) | < 0.01 µM (active) | < 0.024 µM (active) | < 0.01 µM (active) | < 0.01 µM (active) | < 0.0229 µM (active) | < 0.01 µM (active) | < 0.01 µM (active)
10 | O=c1cnn(C/C=C/CO)c(=O)[nH]1 | > 100 µM (inactive) | > 100 µM (inactive) | > 100 µM (inactive) | > 100 µM (inactive) | > 100 µM (inactive) | > 100 µM (inactive) | > 100 µM (inactive) | > 100 µM (inactive) | > 100 µM (inactive) | > 100 µM (inactive) |  | > 100 µM (inactive) | > 100 µM (inactive) | > 100 µM (inactive) |  | > 100 µM (inactive) |  |  | > 100 µM (inactive)
11 | NNC1=N/C(=C\c2ccccc2O)C(=O)N1 | 30.9 µM (inactive) | 38.5 µM (inactive) |  | 9.12 µM (inactive) | 20.2 µM (inactive) | 50.5 µM (inactive) | 42.2 µM (inactive) | 37.9 µM (inactive) | 43.9 µM (inactive) | 35.5 µM (inactive) | 34.4 µM (inactive) | 60.8 µM (inactive) | 49.2 µM (inactive) | 65.3 µM (inactive) | 53.6 µM (inactive) | 60.3 µM (inactive) | 25.4 µM (inactive) | 20.7 µM (inactive) | 35.4 µM (inactive)
12 | CC[C@@]1(O)C(=O)OCc2c1cc1n(c2=O)Cc2c-1nc1ccccc1c2/C=N\NC(=O)C(N)Cc1c[nH]c2ccccc12 (some centres undefined) | < 0.0188 µM (active) | 0.0743 µM (active) | 2.3 µM (inactive) | < 0.01 µM (active) | 0.104 µM (active) | 5.78 µM (inactive) | 2.02 µM (inactive) | 6.25 µM (inactive) | 1.76 µM (inactive) | 2.84 µM (inactive) | 0.392 µM (active) | 1.26 µM (inactive) | 1.29 µM (inactive) | 13.1 µM (inactive) | 3.74 µM (inactive) | 0.0578 µM (active) | 0.101 µM (active) | 0.108 µM (active) | 33 µM (inactive)
13 | Cc1ccccc1/N=N/c1c(O)c(S(=O)(=O)O)cc2cc(S(=O)(=O)O)ccc12 | > 100 µM (inactive) | > 100 µM (inactive) | > 100 µM (inactive) | > 100 µM (inactive) | > 100 µM (inactive) | > 100 µM (inactive) | > 100 µM (inactive) | > 100 µM (inactive) | > 100 µM (inactive) | > 100 µM (inactive) | > 100 µM (inactive) | > 100 µM (inactive) | > 100 µM (inactive) | > 100 µM (inactive) | > 100 µM (inactive) | > 100 µM (inactive) | > 100 µM (inactive) | > 100 µM (inactive) | > 100 µM (inactive)
14 | CSc1ccc2c(cc1=O)[C@@H](NC(C)=O)CCc1cc(O)c(O)c(O)c1-2 | 22.3 µM (inactive) | 60.4 µM (inactive) | 23 µM (inactive) | 4.98 µM (inactive) | 16.4 µM (inactive) | 31.9 µM (inactive) | 11.3 µM (inactive) | 29.6 µM (inactive) | 57 µM (inactive) | 18.3 µM (inactive) | 30.6 µM (inactive) | > 100 µM (inactive) | 84.3 µM (inactive) | 17.1 µM (inactive) | 9.82 µM (inactive) | 48.4 µM (inactive) |  | 13.8 µM (inactive) | 23.9 µM (inactive)
15 | CC[C@@]1(O)C(=O)OCc2c1cc1n(c2=O)Cc2c-1nc1ccccc1c2CC[Si](C)(C)C [COSITECAN] | < 0.01 µM (active) | < 0.01 µM (active) | < 0.01 µM (active) |  | < 0.01 µM (active) | 0.0671 µM (active) | < 0.01 µM (active) | 0.023 µM (active) | < 0.01 µM (active) | 0.0367 µM (active) | < 0.01 µM (active) |  | < 0.0389 µM (active) | 0.0601 µM (active) | < 0.01 µM (active) | < 0.01 µM (active) | < 0.01 µM (active) | < 0.01 µM (active) | 0.417 µM (active)
